Consider three molecules from patent US20230293535A1, “ERBB/BTK INHIBITORS” (Dizal (Jiangsu) Pharmaceutical Co., Ltd., priority 2018, published 2023).

Read-outs that look alike come from different tables or passages of the source.

The target in series [1] is T1, human EGFR exon 20 H773_V774insNPH (Homo sapiens, UniProt P00533, INS773NPH).
T1 construct: host or cells: Ba/F3
Briefly: EGFR Exon20 NPH insertion cellular phosphorylation inhibition (MSD pEGFR Y1068/total EGFR).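 Note: IL3-independent Ba/F3 cells with constitutively phosphorylated EGFR, compound exposure at 37 °C under 5% CO2, electrochemiluminescent MSD measurement of the p-EGFR to total EGFR ratio.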 Format: cell-based. Conditions: Ba/F3 EGFR NPH ins cells, 4 h compound, p-EGFR(Y1068)/total EGFR.

For series [2], the target named is T2, human EGFR exon 20 V769_D770insASV (Homo sapiens, UniProt P00533, INS769ASV).
T2 construct: expressed in transfected cells; host or cells: Ba/F3 (DSMZ ACC-300), lentiviral transduction, puromycin selection, IL3 depletion
Nature of the series: EGFR Exon20 ASV insertion cellular phosphorylation inhibition (MSD pEGFR Y1068/total EGFR).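 Note: electrochemiluminescent readout on an MSD SECTOR Imager, IL3-independent transduced cells in medium with 1% FBS, compound concentration series at 37 °C and 5% CO2.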 Format: cell-based. The following applies: Ba/F3 EGFR ASV ins cells, 4 h compound, p-EGFR(Y1068)/total EGFR.

Series [3] has as its target T3, EGFR L858R&T790M (Homo sapiens, UniProt P00533, L858R/T790M).
T3 construct: host or cells: NCI-H1975
Briefly: EGFR L858R and T790M cellular phosphorylation inhibition in NCI-H1975 (MSD).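 Note: phosphorylated and total EGFR detected by electrochemiluminescence, cells exposed to compound in medium containing 1% FBS at 37 °C.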 Format: cell-based. Conditions: NCI-H1975 cells, 4 h compound, p-EGFR(Y1068)/total EGFR; read-out: EGFR L858R and T790M mutation IC50.

The target in series [4] is T4, human Her2 exon 20 insertion mutation YVMA (Homo sapiens, UniProt P04626, INS775YVMA).
T4 construct: expressed in transfected cells; host or cells: NIH-3T3, lentiviral transduction, puromycin selection
Briefly: Her2 Exon 20 YVMA insertion cellular phosphorylation inhibition (MSD p-Her2 Y1248/total Her2).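 Note: lentivirally transduced NIH-3T3 cells in 1% FBS medium, electrochemiluminescent MSD read-out, graded compound concentrations at 37 °C.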 Conditions: Her2 YVMAins cells, 4 h compound. Format: cell-based.

Series [5] concerns the target T5, WT EGFR (Homo sapiens, UniProt P00533).
T5 construct: host or cells: A-431
Nature of the series: WT EGFR cellular phosphorylation inhibition in A-431 (hEGF stimulated, MSD).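 Note: electrochemiluminescence read-out of EGFR Tyr1068 phosphorylation expressed as ratio to total EGFR, cells kept in medium with 1% FBS, compounds tested as a concentration series.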 Format: cell-based. The following applies: A431 cells, 4 h compound, then 100 ng/ml hEGF 10 min.

The subject of series [6] is Ba/F3 EGFR NPH ins cells. Nature of the series: Cell proliferation, Ba/F3 EGFR NPH ins (CellTiter-Glo, 72 h).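 Note: IL3-independent cells carrying constitutively phosphorylated EGFR, compound dilution series, viable cells quantified by ATP luminescence, growth relative to DMSO wells after subtracting pre-dosing (day 0) baseline.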 The series is classed as cell-based.
For series [7], the system named is Ba/F3 EGFR ASV ins cells. Nature of the series: Cell proliferation, Ba/F3 EGFR ASV ins (CellTiter-Glo, 72 h).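 Note: IL3-independent Ba/F3 cells transduced with EGFR V769_D770insASV, cellular ATP luminescence after compound exposure, growth relative to DMSO control with the day-0 baseline reading subtracted.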 Format: cell-based.
For series [8], the system named is NCI-H1975 EGFR L858R/T790M cells. Briefly: Cell proliferation, NCI-H1975 EGFR L858R/T790M (CellTiter-Glo, 72 h).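 Note: viable cells quantified by luciferase-based ATP luminescence, proliferation expressed relative to DMSO-treated wells (100%) after subtracting a parallel plate read at the time of dosing.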 The series is classed as cell-based.
Series [9] deals with Her2 exon 20 insertion YVMA transduced NIH-3T3 cell line. Briefly: Cell proliferation, Her2 YVMAins NIH-3T3 (CellTiter-Glo, 72 h).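 Note: viable cells quantified by ATP luminescence, growth over a day-zero baseline plate expressed as percent of DMSO control growth, compound dilution series in 10% FBS medium.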 The series is classed as cell-based.
Series [10] concerns WT EGFR cell line A-431. Nature of the series: Cell proliferation, WT EGFR A431 (CellTiter-Glo, 72 h).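 Note: proliferation from a luminescent ATP viability signal, expressed as 100 × (treated minus time-zero plate) over (DMSO control minus time-zero plate), cells grown with 10% FBS.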 The series is classed as cell-based.
The test system of series [11] is OCI-LY-10 cells. Briefly: BTK (wt) cell proliferation, OCI-LY-10 (CellTiter-Glo, 72 h).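 Note: viable cells quantified via cellular ATP luminescence, proliferation given as percent of DMSO control after subtracting a duplicate plate read at time of dosing.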 The series is classed as cell-based. The following applies: read-out: BTK WT OCI-LY-10 GI50.
Protocol: OCI-LY-10 at 3,750 cells/well, TMD-8 and Ri-1 at 2,000 cells/well, and DB at 1,250 cells/well, respectively, were sorted into 384-well plates in RPMI1640 medium with 10% FBS. After overnight incubation, all cells were incubated with compound at a series of concentrations. Meanwhile, a duplicated plate of each cell line was prepared for measuring G0 value. The dosed plates were further incubated for 72 hours and the number of viable cells was measured by CellTiter-Glo® Luminescent Cell Viability Assay (Promega), a luminescent method for determining the number of viable cells through measurement of cellular ATP concentration using Envision plate reader (PerkinElmer). The percentage of proliferation was calculated as: % Proliferation = 100 × (G3 value of sample well - G0 value)/(G3 value of DMSO control - G0 value).
The test system of series [12] is TMD-8 cells. Nature of the series: BTK (wt) cell proliferation, TMD-8 (CellTiter-Glo, 72 h).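 Note: viable cells quantified by ATP-based luminescence, proliferation expressed as percent of DMSO control after subtracting a time-zero baseline plate read at dosing.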 The series is classed as cell-based. The following applies: read-out: BTK WT TMD-8 GI50.
For series [13], the system named is Ri-1 cells. Nature of the series: BTK (wt) cell proliferation, Ri-1 (CellTiter-Glo, 72 h).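 Note: viable cells quantified as cellular ATP luminescence, proliferation normalized to a time-zero plate and the DMSO control, compounds tested across a dilution series.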 The following applies: read-out: BTK WT Ri-1 GI50. The series is classed as cell-based.
Series [14] concerns DB cells. Nature of the series: BTK (wt) cell proliferation, DB (CellTiter-Glo, 72 h).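 Note: DB cells in 384-well plates given a dilution series of compound, viable cells read by ATP luminescence, growth expressed versus DMSO control after subtracting a time-zero plate reading.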 The series is classed as cell-based. Conditions: read-out: Non-BCR activated DB GI50.
Series [15] in a line: in vitro. The following applies: male, rat, hepatocytes, rat hepatocytes Clint (µL/min/10^6cells).
Protocol: (§1) The protocol for rat/human hepatocytes metabolic stability assay is employed to determine the clearance of the compounds of the present disclosure in vitro.
(§2) Rat hepatocytes in male gender and human hepatocytes in mixed gender were obtained from commercial vendors (e.g., BioreclamationIVT) and stored at -150° C. prior to use. 10 mM stock solutions of tested compounds were prepared in DMSO. Thawing medium and supplement incubation medium (serum-free) were placed in a 37° C. water bath for at least 15 minutes prior to use. Stock solutions were diluted to 100 µM by combining 198 µL acetonitrile and 2 µL of 10 mM stock solution.
(§3) Vials of cryopreserved hepatocytes were removed from storage, ensured that vials remain at cryogenic temperatures. The vials were thawed in a 37° C. water bath with gently shaking. Vials were kept in water bath until all ice crystals had dissolved and were no longer visible. Vials were sprayed with 70% ethanol before being transferred to a biosafety cabinet. And then the contents were poured into the 50 mL thawing medium conical tube. Vials were centrifuged at 100 g for 10 minutes at room temperature.
(§4) Cell viability and density were counted using a Trypan Blue exclusion, and then cells were diluted with serum-free incubation medium to a working cell density of 1 × 10^6 viable cells/ml. […] The inactivated hepatocytes were used to prepare negative samples, which were used to exclude the misleading factor that resulted from instability of chemical itself.
(§5) Aliquots of 247.5 µL hepatocytes were dispensed into each well of a 96-well non-coated plate. The plate was placed in the incubator on an orbital shaker for approximately 10 minutes. Aliquots of 2.5 µL of the 100 µM test compounds were added into respective wells of the non-coated 96-well plate to start the reaction. This assay was performed in duplicate. The plate was incubated in the incubator on an orbital shaker for the designed time points. […] Samples were centrifuges for 20 minutes at 4000 g and aliquots of 100 µL of the supernatants were used for LC-MS/MS analysis for measurement of test compounds
(§6) In vitro hepatocyte clearance was estimated based on determination of elimination half-life (T½) of compounds disappearance from their initial concentrations. Peak area ratios of each compound (test or control) to IS was calculated. Ln (%Control) versus Incubation Time (min) curve was plotted, and the slope of a linear fitting line was calculated.
Series [16] is described as follows: in vitro. The following applies: both, human, hepatocytes, human hepatocytes Clint (µL/min/10^6cells).
The target in series [17] is T6, Phospho-BTK (Tyr223) (Homo sapiens, UniProt Q06187).
T6 construct: endogenous in cells; host or cells: Ramos
Nature of the series: p-BTK assay in Ramos cells (HTRF Phospho-BTK Tyr223). The series is classed as cell-based. The following applies: pervanadate stimulated, read-out: p-BTK (Romas) IC50.
Protocol: The assay plates were then incubated for 30 minutes at 37° C., 5% CO2. 300 uM Per vanadate (3X) was added to each well and the assay plates were again incubated for 60 minutes at 37° C., 5% CO2. Phospho-BTK (Tyr223) is detected using the HTRF® reagents (Cisbio) according to the manufacturer’s one-plate assay protocol.

In series [18] the target is T7, BTK (Homo sapiens, UniProt Q06187). Nature of the series: BTK target site occupancy ELISA (PBMC). The following applies: BTK receptor occupancy. Format: cell-based.
Series [19] addresses T7, BTK. Nature of the series: BTK target site occupancy ELISA (Ramos). The series is classed as cell-based. More on the design: endogenous in cells; host or cells: Ramos. Conditions: BTK receptor occupancy, read-out: Occupancy (Romas) IC50.
Protocol: An enzyme-linked immunosorbent assay (ELISA) method for the detection of free uninhibited Btk in mouse and human lysates. Human or mouse whole blood were incubated with compound for 2 hour at 37° C. Whole blood were lysed in ice-cold lysis buffer containing 50 mM Tris-HCl, pH 7.5, 150 mM NaCl, 1 mM EDTA,1% Triton X-100. […] Samples were transferred to a streptavidin-coated 96-well ELISA plate and mixed while shaking for 1 hour at room temperature. The α-Btk antibody (1:500; clone number D3H5, Cell signaling Technology, Danvers, MA, USA) was then added to the well and incubated for 1 hour at room temperature. After wash, goat α-rabbit-FW (1:5000 dilution in PBS+ 0.05% Tween-20 + 1% BSA) was added to each well and incubated for 1 h at room temperature. The ELISA was developed with addition of tetramethyl benzidine (TMB) followed by Stop Solution and read at OD 450 nm.
Series [20] relates to rat hepatocytes. Briefly: In vitro rat hepatocytes clearance assay. Conditions: male rat hepatocytes, 1 µM-range incubation up to 100 min.
Protocol: as §1, §2, §3, §4, §5, §6
In series [21] the test system is human hepatocytes. Briefly: In vitro human hepatocytes clearance assay. Conditions: mixed gender human hepatocytes, incubation up to 100 min.
[22] abbreviates: Ba/F3 EGFR NPH ins, 72 h proliferation, read-out: EGFR Exon20 NPH insertion GI50.
The mark [23] stands for this setting: Ba/F3 EGFR ASV ins, 72 h proliferation, read-out: EGFR Exon20 ASV insertion GI50.
Where [24] appears, read: NCI-H1975, 72 h proliferation, read-out: EGFR L858R and T790M mutation GI50.
Where [25] appears, read: Her2 YVMAins cells, 72 h proliferation, read-out: Her2 Exon 20 YVMA insertion GI50.
The mark [26] stands for this setting: A431, 72 h proliferation, read-out: EGFR WT A431 GI50.
[27] abbreviates: OCI-LY-10 cells, 72 h, CellTiter-Glo.
[28] abbreviates: TMD-8 cells, 72 h, CellTiter-Glo.
Setting [29] is: Ri-1 cells, 72 h, CellTiter-Glo.

T5 sequence (P00533 25-1210): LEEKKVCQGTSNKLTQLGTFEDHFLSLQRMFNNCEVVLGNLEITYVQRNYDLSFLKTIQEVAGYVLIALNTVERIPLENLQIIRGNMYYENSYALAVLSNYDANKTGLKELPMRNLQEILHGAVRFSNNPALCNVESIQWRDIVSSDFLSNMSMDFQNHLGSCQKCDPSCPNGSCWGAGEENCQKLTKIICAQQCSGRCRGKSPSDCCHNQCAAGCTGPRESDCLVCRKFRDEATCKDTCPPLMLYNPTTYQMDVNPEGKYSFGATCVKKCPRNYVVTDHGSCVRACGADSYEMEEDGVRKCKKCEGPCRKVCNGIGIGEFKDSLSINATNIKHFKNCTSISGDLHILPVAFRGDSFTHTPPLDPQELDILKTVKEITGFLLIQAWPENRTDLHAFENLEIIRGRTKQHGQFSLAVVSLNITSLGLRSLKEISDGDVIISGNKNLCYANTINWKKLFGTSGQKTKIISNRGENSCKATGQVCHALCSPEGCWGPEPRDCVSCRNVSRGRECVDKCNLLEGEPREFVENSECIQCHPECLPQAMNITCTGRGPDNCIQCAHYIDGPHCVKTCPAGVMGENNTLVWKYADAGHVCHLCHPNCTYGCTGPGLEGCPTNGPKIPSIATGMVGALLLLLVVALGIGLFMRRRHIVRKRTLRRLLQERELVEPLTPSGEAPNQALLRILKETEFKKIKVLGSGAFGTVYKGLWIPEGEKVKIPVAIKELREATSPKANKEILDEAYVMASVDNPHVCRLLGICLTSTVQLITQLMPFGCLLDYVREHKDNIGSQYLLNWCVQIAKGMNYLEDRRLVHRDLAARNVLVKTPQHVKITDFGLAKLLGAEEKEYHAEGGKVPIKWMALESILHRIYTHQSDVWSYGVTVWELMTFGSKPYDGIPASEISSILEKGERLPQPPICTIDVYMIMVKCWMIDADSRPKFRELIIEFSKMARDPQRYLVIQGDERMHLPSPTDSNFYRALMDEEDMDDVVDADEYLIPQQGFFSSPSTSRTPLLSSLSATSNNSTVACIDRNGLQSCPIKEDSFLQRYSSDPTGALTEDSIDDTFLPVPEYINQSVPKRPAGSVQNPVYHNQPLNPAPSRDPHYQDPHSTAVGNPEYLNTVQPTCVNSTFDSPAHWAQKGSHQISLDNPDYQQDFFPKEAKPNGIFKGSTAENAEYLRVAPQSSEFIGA
T1 sequence (P00533 with tags, fused parts or gaps INS773NPH): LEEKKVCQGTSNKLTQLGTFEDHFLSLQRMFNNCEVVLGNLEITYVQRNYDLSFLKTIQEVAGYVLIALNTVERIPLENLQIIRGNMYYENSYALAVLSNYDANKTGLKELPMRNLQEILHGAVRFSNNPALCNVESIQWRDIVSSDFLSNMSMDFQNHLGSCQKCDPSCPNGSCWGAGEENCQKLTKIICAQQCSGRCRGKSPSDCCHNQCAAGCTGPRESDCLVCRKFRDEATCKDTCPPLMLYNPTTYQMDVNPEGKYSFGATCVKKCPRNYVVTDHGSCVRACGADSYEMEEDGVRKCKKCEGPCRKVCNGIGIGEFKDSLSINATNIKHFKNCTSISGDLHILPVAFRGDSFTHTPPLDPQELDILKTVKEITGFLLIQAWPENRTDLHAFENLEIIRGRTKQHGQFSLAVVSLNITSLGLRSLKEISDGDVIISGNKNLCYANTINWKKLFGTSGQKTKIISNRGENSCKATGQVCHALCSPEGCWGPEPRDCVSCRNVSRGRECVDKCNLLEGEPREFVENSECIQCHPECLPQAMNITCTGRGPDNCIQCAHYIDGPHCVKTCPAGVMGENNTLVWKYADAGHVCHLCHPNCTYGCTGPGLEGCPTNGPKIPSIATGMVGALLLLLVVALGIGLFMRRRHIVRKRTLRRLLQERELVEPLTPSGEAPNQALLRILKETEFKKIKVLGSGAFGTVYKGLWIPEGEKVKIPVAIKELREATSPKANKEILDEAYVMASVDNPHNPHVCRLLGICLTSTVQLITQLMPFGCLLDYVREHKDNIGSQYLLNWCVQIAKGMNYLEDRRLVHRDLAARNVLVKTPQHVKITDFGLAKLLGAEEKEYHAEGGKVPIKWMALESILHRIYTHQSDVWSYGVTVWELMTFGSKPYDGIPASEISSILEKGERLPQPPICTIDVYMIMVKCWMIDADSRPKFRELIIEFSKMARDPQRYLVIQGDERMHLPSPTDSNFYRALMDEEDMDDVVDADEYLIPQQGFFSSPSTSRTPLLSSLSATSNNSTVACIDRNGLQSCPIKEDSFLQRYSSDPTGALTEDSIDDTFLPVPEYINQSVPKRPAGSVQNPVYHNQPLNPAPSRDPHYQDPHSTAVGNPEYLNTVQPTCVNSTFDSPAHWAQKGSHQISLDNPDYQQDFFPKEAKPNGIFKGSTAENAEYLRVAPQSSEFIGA
T4 sequence (P04626 with tags, fused parts or gaps INS775YVMA): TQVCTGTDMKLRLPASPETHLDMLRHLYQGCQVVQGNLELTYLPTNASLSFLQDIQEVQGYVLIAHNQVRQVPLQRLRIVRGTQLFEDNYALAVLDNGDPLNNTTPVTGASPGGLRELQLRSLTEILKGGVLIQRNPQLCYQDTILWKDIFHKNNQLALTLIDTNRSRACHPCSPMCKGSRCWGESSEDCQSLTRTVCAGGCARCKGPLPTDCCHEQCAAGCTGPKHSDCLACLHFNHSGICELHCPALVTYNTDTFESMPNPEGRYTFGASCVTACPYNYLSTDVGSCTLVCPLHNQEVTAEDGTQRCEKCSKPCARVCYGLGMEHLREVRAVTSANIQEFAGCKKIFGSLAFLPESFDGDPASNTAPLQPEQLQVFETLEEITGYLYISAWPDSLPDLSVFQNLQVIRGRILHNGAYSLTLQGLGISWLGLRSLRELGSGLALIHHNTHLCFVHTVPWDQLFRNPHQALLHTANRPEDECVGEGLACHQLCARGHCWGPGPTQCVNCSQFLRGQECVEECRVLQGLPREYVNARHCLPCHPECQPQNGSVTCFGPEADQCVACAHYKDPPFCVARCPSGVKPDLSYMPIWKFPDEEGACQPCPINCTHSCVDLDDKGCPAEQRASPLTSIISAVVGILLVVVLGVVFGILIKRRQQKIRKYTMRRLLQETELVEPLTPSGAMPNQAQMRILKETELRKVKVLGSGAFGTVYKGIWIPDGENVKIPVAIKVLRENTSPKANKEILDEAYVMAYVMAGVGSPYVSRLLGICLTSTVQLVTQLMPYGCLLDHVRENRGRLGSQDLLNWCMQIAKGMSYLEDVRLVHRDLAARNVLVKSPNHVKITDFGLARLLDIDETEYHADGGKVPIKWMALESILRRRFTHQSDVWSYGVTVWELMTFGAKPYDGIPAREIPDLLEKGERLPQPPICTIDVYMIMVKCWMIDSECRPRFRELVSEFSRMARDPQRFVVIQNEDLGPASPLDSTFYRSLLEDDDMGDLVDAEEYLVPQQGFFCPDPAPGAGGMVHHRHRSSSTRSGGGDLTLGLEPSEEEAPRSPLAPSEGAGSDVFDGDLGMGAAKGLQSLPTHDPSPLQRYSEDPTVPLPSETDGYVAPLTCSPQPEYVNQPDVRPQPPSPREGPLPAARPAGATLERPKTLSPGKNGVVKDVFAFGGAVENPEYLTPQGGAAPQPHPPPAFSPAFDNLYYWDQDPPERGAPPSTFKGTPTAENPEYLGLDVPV
T2 sequence (P00533 with tags, fused parts or gaps INS769ASV): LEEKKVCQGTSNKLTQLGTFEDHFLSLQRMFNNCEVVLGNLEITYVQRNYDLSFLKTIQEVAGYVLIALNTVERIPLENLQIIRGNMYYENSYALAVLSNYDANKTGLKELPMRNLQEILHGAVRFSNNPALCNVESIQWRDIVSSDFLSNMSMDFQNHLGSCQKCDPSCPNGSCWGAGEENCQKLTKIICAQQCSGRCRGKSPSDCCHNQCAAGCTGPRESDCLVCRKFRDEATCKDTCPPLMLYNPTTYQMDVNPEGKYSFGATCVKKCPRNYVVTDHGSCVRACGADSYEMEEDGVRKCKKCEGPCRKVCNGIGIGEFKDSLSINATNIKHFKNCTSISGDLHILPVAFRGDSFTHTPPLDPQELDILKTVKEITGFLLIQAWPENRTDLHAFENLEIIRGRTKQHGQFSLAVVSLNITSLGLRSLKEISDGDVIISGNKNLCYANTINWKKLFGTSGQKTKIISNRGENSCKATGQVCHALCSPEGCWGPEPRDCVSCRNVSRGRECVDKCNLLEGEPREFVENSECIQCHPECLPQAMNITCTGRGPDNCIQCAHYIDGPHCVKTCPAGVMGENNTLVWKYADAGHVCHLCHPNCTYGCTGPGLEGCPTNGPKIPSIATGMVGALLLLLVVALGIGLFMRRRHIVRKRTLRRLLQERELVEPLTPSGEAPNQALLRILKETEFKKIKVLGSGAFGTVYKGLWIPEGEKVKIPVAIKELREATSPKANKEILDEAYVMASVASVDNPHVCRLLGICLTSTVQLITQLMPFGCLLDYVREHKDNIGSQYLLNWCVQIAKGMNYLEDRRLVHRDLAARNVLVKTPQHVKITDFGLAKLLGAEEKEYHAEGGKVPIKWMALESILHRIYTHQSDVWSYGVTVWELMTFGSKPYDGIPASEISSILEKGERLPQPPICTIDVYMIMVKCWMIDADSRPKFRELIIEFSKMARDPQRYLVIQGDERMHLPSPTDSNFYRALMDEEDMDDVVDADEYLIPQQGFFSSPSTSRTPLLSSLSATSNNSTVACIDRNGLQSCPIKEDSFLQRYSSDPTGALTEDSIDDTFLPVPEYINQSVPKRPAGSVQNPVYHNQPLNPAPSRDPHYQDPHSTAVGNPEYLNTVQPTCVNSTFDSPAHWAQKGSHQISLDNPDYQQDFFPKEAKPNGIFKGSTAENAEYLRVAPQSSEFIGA

Take `C=CC(=O)Nc1cc(Nc2ncnc(Nc3cc(Cl)c(F)cc3C(C)(O)CC)n2)c(OC)cc1N1CC[C@@H](N(C)C)C1` (stereo partly drawn) [Compound 59, N-(5-(4-(5-chloro-4-fluoro-2-(2-hydroxybutan-2-yl)phenylamino)-1,3,5-triazin-2-ylamino)-2-((R)-3-(dimethylamino)pyrrolidin-1-yl)-4-methoxyphenyl) acrylamide]: the IC50 worked out at 16.4 nM in series [1]; 13.3 nM in series [2]; 0.5 nM in series [3]; 3.5 nM in series [4]; 25.7 nM in [5]. The GI50 was 29.1 nM in series [6] (Ba/F3 EGFR, 72 h, read-out: EGFR Exon20 NPH insertion GI50 (nM)); 29.8 nM in series [7] (Ba/F3 EGFR, 72 h, read-out: EGFR Exon20 ASV insertion GI50 (nM)); 2 nM in series [8] (Homo sapiens, NCI-H1975, 72 h, read-out: EGFR L858R and T790M mutation GI50 (nM)); 62.2 nM in [9] (Mus musculus, NIH3T3, 72 h, read-out: Her2 Exon 20 YVMA insertion GI50 (nM)); 10.7 nM in series [10] (Homo sapiens, A-431, 72 h, read-out: EGFR WT A431 GI50 (nM)); 17.1 nM in [11] (Homo sapiens, OCI-Ly10, 72 h). The GI50 in series [12] (Homo sapiens, TMD8, 72 h) was 4.78 nM; in [13] (Ri-1, 72 h), 26.9 nM; in series [14] (Homo sapiens, DB), over 3000 nM. For the same molecule, the intrinsic metabolic clearance (hepatocyte CLint) at 1 µM amounted to 14.1 µL/min/1e6 cells in series [15] and 3.75 µL/min/1e6 cells in [16].

In the case of `C=CC(=O)Nc1cc(Nc2nccc(Nc3cc(Cl)c(F)cc3C(C)(O)CC)n2)c(OC)cc1N1CC[C@@H](N(C)C)C1` (single isomer, unassigned) [Compound 77, N-(5-(4-(5-chloro-4-fluoro-2-((R)-2-hydroxybutan-2-yl)phenylamino)pyrimidin-2-ylamino)-2-((R)-3-(dimethylamino)pyrrolidin-1-yl)-4-methoxyphenyl) acrylamide or N-(5-(4-(5-chloro-4-fluoro-2-((S)-2-hydroxybutan-2-yl)phenylamino)pyrimidin-2-ylamino)-2-((R)-3-(dimethylamino)pyrrolidin-l-yl)-4-methoxyphenyl) acrylamide], the concentration for half-maximal inhibition (IC50) in series [1] was 44.8 nM; in [2], 50.8 nM; in series [3], 1.7 nM; in series [4], 21.5 nM; in [5], 303 nM; in series [17], 1.6 nM. For the same molecule, the IC50 in [18] was 1.7 nM; in series [19] it was 0.49 nM. Further, the concentration for 50% growth inhibition (GI50) is 81.9 nM in series [6] (setting [22]); 102 nM in series [7] (setting [23]); 3.6 nM in series [8] (setting [24]); 109 nM in series [9] (setting [25]); 32.4 nM in series [10] (setting [26]); 1.23 nM in [11] (setting [27]). Moreover, the GI50 is 1.19 nM in [12] (setting [28]); 1.55 nM in [13] (setting [29]); 1750 nM in series [14] (DB cells, CellTiter-Glo). The “rat hepatocytes Clint (µL/min/10^6cells)” value in series [20] was found to be 15.8 µL/min/10^6cells. In addition, the “human hepatocytes Clint (µL/min/10^6cells)” value in series [21] is recorded as 7.87 µL/min/10^6cells.

For the molecule `C=CC(=O)Nc1cc(Nc2ncnc(Nc3cc(Cl)c(F)cc3C(C)(O)CC)n2)c(OC)cc1N1CC[C@@H](N(C)C)C1` (single isomer, unassigned) [Compound 70, N-(5-(4-(5-chloro-4-fluoro-2-((R)-2-hydroxybutan-2-yl)phenylamino)-1,3,5-triazin-2-ylamino)-2-((R)-3-(dimethylamino)pyrrolidin-1-yl)-4-methoxyphenyl)acrylamide or N-(5-(4-(5-chloro-4-fluoro-2-((S)-2-hydroxybutan-2-yl)phenylamino)-1,3,5-triazin-2-ylamino)-2-((R)-3-(dimethylamino)pyrrolidin-1-yl)-4-methoxyphenyl)acrylamide], the concentration for half-maximal inhibition (IC50) was determined as 67.5 nM in [1]; 22.3 nM in [2]; 1.5 nM in series [3]; 15.7 nM in series [4]; 71.2 nM in [5]. For the same molecule, the GI50 in series [6] (setting [22]) was determined as 65.8 nM; in series [7] (setting [23]), 65.4 nM; in [8] (setting [24]) it was 9.1 nM; in series [9] (setting [25]) it was 72 nM; in [10] (setting [26]) it was 15.4 nM; in series [11] (setting [27]) it was 22.2 nM. Further, the concentration for 50% growth inhibition (GI50) is 10.2 nM in series [12] (setting [28]); 88.9 nM in series [13] (setting [29]); over 3000 nM in series [14] (DB cells, CellTiter-Glo). In addition, in series [20], the “rat hepatocytes Clint (µL/min/10^6cells)” value is recorded as 12.9 µL/min/10^6cells. The “human hepatocytes Clint (µL/min/10^6cells)” value in series [21] is 3.69 µL/min/10^6cells.
